Experimental data as given in patent publication US9834521B2, “Choline kinase inhibitors” (ARIAD Pharmaceuticals, Inc., priority 2013, dated 2017).
Like-named read-outs stand apart in the source and are kept apart here.

Experiments:
[1] = molecular target: T1, truncated form of human Choline kinase α1 that includes residues 75-457 (Homo sapiens, UniProt P35790); assay: Kinase Assay, coupled (ATP regeneration) LDH/PK assay, NADH absorbance; format: biochemical; details: read-out: IC50
T1 construct: made in house
Method: Absorbance of NADH (340 nm) was measured over 30 min using a SpectraMax M5 (Molecular Devices). Initial reaction velocity (ΔA340/Δt) was calculated and plotted as a function of inhibitor concentration in a 2-fold dilution series. IC50 values were obtained by fitting the relative velocities to a dose-response model.

ChoKα protein = molecular target: T2, ChoKα protein (Homo sapiens, UniProt P35790); assay: Binding affinity by surface plasmon resonance (SensiQ Pioneer, FastStep); details: SPR, 1:1 binding model, upper concentration 500 nM; read-out: Kd
T2 construct: made in house
Method: KD may be measured using surface plasmon resonance (BIAcore®) technology, see, e.g., Panayotou et al, Mol. Cell. […] ChoKα protein was immobilized by standard amine coupling methods on a COOH5 sensor chip installed in a SensiQ Pioneer system. Sensograms were measured using the FastStep™ screen method with an upper concentration of 500 nM. Kinetics and affinity were obtained from fits using a 1:1 binding model.

[2] = Examples not designated with an asterisk, footnote prints version 1 of the Kinase Assay
[3] = Examples designated with an asterisk (*): version 1 of the Kinase Assay, 200 nM enzyme

T2 sequence (P35790 75-457): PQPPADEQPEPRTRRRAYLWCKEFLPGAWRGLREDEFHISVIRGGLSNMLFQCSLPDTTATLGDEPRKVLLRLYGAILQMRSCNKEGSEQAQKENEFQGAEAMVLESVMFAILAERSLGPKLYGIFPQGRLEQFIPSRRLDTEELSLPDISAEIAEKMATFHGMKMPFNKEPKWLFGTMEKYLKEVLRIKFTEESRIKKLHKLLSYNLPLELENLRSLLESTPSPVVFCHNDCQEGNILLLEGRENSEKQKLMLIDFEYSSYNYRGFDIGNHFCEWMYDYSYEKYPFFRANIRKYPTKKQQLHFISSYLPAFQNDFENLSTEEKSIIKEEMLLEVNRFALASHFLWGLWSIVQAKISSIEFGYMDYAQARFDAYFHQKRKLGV
T1 sequence (P35790 75-457): as above

| IC50 [1, 2] [nM] | Kd (ChoKα protein) [nM] | IC50 [1, 3] [nM] | SMILES |
| --- | --- | --- | --- |
| < 100 | < 100 |  | CN1CCCN(Cc2ccc(-c3ccc(CN4CCCC(O)C4)cc3)c(C#N)c2)CC1 (centres unmarked) [Example 1, 4′-((3-hydroxypiperidin-1-yl)methyl)-4-((4-methyl-1,4-diazepan-1-yl)methyl)-[1,1′-biphenyl]-2-carbonitrile] |
| < 100 | < 50 |  | CN1CCCN(Cc2ccc(-c3ccc(CN4CCC(O)C4)cc3)c(C#N)c2)CC1 (centres unmarked) [Example 2, 4′-((3-hydroxypyrrolidin-1-yl)methyl)-4-((4-methyl-1,4-diazepan-1-yl)methyl)-[1,1′-biphenyl]-2-carbonitrile] |
| < 200 | < 200 |  | CN1CCCN(Cc2ccc(-c3ccc(CN4CCC(CO)C4)cc3)c(C#N)c2)CC1 (centres unmarked) [Example 5, 4′-((3-(hydroxymethyl)pyrrolidin-1-yl)methyl)-4-((4-methyl-1,4-diazepan-1-yl)methyl)-[1,1′-biphenyl]-2-carbonitrile] |
| < 200 | < 100 |  | CN1CCCN(Cc2ccc(-c3ccc(CN4CCN(CCO)CC4)cc3)c(C#N)c2)CC1 [Example 6, 4′-((4-(2-hydroxyethyl)piperazin-1-yl)methyl)-4-((4-methyl-1,4-diazepan-1-yl)methyl)-[1,1′-biphenyl]-2-carbonitrile] |
| < 200 | < 60000 |  | CN1CCCN(Cc2ccc(-c3ccc(CN4CCNC(=O)C4)cc3)c(C#N)c2)CC1 [Example 7, 4-((4-methyl-1,4-diazepan-1-yl)methyl)-4′-((3-oxopiperazin-1-yl)methyl)-[1,1′-biphenyl]-2-carbonitrile] |
| < 100 | < 50 |  | CN1CCCN(Cc2ccc(-c3ccc(CN(C)CCO)cc3)c(C#N)c2)CC1 [Example 8, 4′-(((2-hydroxyethyl)(methyl)amino)methyl)-4-((4-methyl-1,4-diazepan-1-yl)methyl)-[1,1′-biphenyl]-2-carbonitrile] |
| < 200 | < 100 |  | CN1CCCN(Cc2ccc(-c3ccc(CN4CCOCC4)cc3)c(C#N)c2)CC1 [Example 9, 4-((4-methyl-1,4-diazepan-1-yl)methyl)-4′-(morpholinomethyl)-[1,1′-biphenyl]-2-carbonitrile] |
| < 200 | < 200 |  | CN1CCCN(Cc2ccc(-c3ccc(CN4CCN(C)CC4)cc3)c(C#N)c2)CC1 [Example 11, 4-((4-methyl-1,4-diazepan-1-yl)methyl)-4′-((4-methylpiperazin-1-yl)methyl)-[1,1′-biphenyl]-2-carbonitrile] |
| < 100 | < 50 |  | CCN(CC)C1CCN(Cc2ccc(-c3ccc(CN4CCCN(C)CC4)cc3C#N)cc2)CC1 [Example 15, 4′-((4-(diethylamino)piperidin-1-yl)methyl)-4-((4-methyl-1,4-diazepan-1-yl)methyl)-[1,1′-biphenyl]-2-carbonitrile] |
| < 200 | < 200 |  | CN1CCCN(Cc2ccc(-c3ccc(CN)cc3)c(C#N)c2)CC1 [Example 16, 4′-(aminomethyl)-4-((4-methyl-1,4-diazepan-1-yl)methyl)-[1,1′-biphenyl]-2-carbonitrile] |
| < 200 | < 200 |  | CN1CCCN(Cc2ccc(-c3ccc(C(=O)N4CCC(CO)C4)cc3)c(C#N)c2)CC1 (centres unmarked) [Example 22, 4′-(3-(hydroxymethyl)pyrrolidine-1-carbonyl)-4-((4-methyl-1,4-diazepan-1-yl)methyl)-[1,1′-biphenyl]-2-carbonitrile] |
| < 200 | < 200 |  | CCN(CC)C(=O)c1ccc(-c2ccc(CN3CCCN(C)CC3)cc2C#N)cc1 [Example 27, 2′-cyano-N,N-diethyl-4′-((4-methyl-1,4-diazepan-1-yl)methyl)-[1,1′-biphenyl]-4-carboxamide] |
| < 200 | < 200 |  | CNC(=O)c1ccc(-c2ccc(CN3CCCN(C)CC3)cc2C#N)cc1 [Example 29, 2′-cyano-N-methyl-4′-((4-methyl-1,4-diazepan-yl)methyl)-[1,1′-biphenyl]-4-carboxamide] |
| < 100 | < 50 |  | CN(C)CCCNC(=O)c1ccc(-c2ccc(CN3CCCN(C)CC3)cc2C#N)cc1 [Example 30, 2′-cyano-N-(3-(dimethylamino)propyl)-4′-((4-methyl-1,4-diazepan-1-yl)methyl)-[1,1′-biphenyl]-4-carboxamide] |
| < 100 | < 50 |  | CN1CCCN(Cc2ccc(-c3ccc(CNS(C)(=O)=O)cc3)c(C#N)c2)CC1 [Example 48, N-((2′-cyano-4′-((4-methyl-1,4-diazepan-1-yl)methyl)-[1,1′-biphenyl]-4-yl)methyl)methanesulfonamide] |
| < 200 | < 60000 |  | Cc1cc(CN2CCCN(C)CC2)ccc1-c1ccc(CO)cc1 [Example 51, (2′-methyl-4′-((4-methyl-1,4-diazepan-1-yl)methyl)-[1,1′-biphenyl]-4-yl)methanol] |
| < 100 | < 100 |  | CN1CCCN(Cc2ccc(-c3ccc(CN4CCCN(C)CC4)cc3[N+](=O)[O-])cc2)CC1 [Example 57, 4,4′-((2-nitro-[1,1′-biphenyl]-4,4′-diyl)bis(methylene))bis(1-methyl-1,4-diazepane)] |
| < 200 | < 200 |  | CN1CCCN(Cc2ccc(-c3ccc(C(=O)N4CCCN(C)CC4)cc3C#N)c(C#N)c2)CC1 [Example 63, 4-((4-methyl-1,4-diazepan-1-yl)methyl)-4′-(4-methyl-1,4-diazepane-1-carbonyl)-[1,1′-biphenyl]-2,2′-dicarbonitrile] |

| IC50 [1, 2] [nM] | Kd (ChoKα protein) [nM] | IC50 [1, 3] [nM] | SMILES |
| --- | --- | --- | --- |
| < 200 | < 60000 |  | CN1CCCN(Cc2ccc(-c3ccc(C(=O)N4CCCN(C)CC4)cc3N)c(C#N)c2)CC1 [Example 64, 2′-amino-4-((4-methyl-1,4-diazepan-1-yl)methyl)-4′-(4-methyl-1,4-diazepane-1-carbonyl)-[1,1-biphenyl]-2-carbonitrile] |
| < 100 | < 50 |  | CN1CCCN(Cc2ccc(-c3ccc(C(=O)N4CCCN(C)CC4)cc3-c3ccc(O)cc3)c(C#N)c2)CC1 [Example 69, 4″-hydroxy-4-((4-methyl-1,4-diazepan-1-yl)methyl)-4′-(4-methyl-1,4-diazepane-1-carbonyl)-[1,1′:2′,1″-terphenyl]-2-carbonitrile] |
| < 100 | < 100 |  | CN1CCCN(Cc2ccc(-c3ccc(C(=O)N4CCCN(C)CC4)cc3-c3cn[nH]c3)c(C#N)c2)CC1 [Example 71, 4-((4-methyl-1,4-diazepan-1-yl)methyl)-4′-(4-methyl-1,4-diazepane-1-carbonyl)-2′-(1H-pyrazol-4-yl)-[1,1′-biphenyl]-2-carbonitrile] |
|  |  | < 50000 | CN1CCCN(Cc2ccc(Cn3cncn3)cc2)CC1 [Example 143, 1-(4-((1H-1,2,4-triazol-1-yl)methyl)benzyl)-4-methyl-1,4-diazepane] |
|  |  | < 50000 | CN1CCCN(Cc2ccc(N3CCCC3=O)cc2)CC1 [Example 144, 1-(4-((4-methyl-1,4-diazepan-1-yl)methyl)phenyl)pyrrolidin-2-one] |
|  |  | < 50000 | CN1CCCN(Cc2ccc(N3CCS(=O)(=O)CC3)cc2)CC1 [Example 145, 4-(4-((4-methyl-1,4-diazepan-1-yl)methyl)phenyl)thiomorpholine 1,1-dioxide] |
|  |  | < 50000 | C=CCN1CCN(Cc2ccc(CN3CCCN(C)CC3)cc2)CC1 [Example 146, 1-(4-((4-allylpiperazin-1-yl)methyl)benzyl)-4-methyl-1,4-diazepane] |
|  |  | < 50000 | CN1CCCN(Cc2ccc(CN3CCN(CCO)CC3)cc2)CC1 [Example 147, 2-(4-(4-((4-methyl-1,4-diazepan-1-yl)methyl)benzyl)piperazin-1-yl)ethanol] |
|  |  | < 50000 | CN1CCC(N2CCN(Cc3ccc(CN4CCCN(C)CC4)cc3)CC2)CC1 [Example 149, 1-methyl-4-(4-((4-(1-methylpiperidin-4-yl)piperazin-1-yl)methyl)benzyl)-1,4-diazepane] |
|  |  | < 50000 | CN1CCCN(Cc2ccc(CN3CC[C@@H](O)C3)cc2)CC1 [Example 150, (R)-1-(4-((4-methyl-1,4-diazepan-1-yl)methyl)benzyl)pyrrolidin-3-ol] |
|  |  | < 50000 | COc1ccc(NCc2ccc(CN3CCCN(C)CC3)cc2)cc1 [Example 151, 4-methoxy-N-(4-((4-methyl-1,4-diazepan-1-yl)methyl)benzyl)aniline] |
|  |  | < 50000 | CN1CCCN(Cc2ccc(CCCCc3ccc(CN4CCCN(C)CC4)cc3)cc2)CC1 [Example 154, 1,4-bis(4-((4-methyl-1,4-diazepan-1-yl)methyl)phenyl)butane] |
| < 500 |  |  | CN1CCCN(Cc2ccc(-c3ccc(CN4CCCN(C)CC4)c(C#N)c3)cc2)CC1 [Example 155, 4,4′-bis((4-methyl-1,4-diazepan-1-yl)methyl)-[1,1′-biphenyl]-3-carbonitrile] |
| < 2000 |  |  | COC(=O)c1ccc(-c2ccc(CN3CCCN(C)CC3)cc2C#N)c(Br)c1 [Example 156, methyl 2-bromo-2′-cyano-4′-((4-methyl-1,4-diazepan-1-yl)methyl)-[1,1′-biphenyl]-4-carboxylate] |
| < 50000 |  |  | CN1CCCN(Cc2ccc(-c3ccc(C(=O)O)cc3Br)c(C#N)c2)CC1 [Example 157, 2-bromo-2′-cyano-4′-((4-methyl-1,4-diazepan-1-yl)methyl)-[1,1′-biphenyl]-4-carboxylic acid] |
|  |  | < 50000 | CN1CCCN(Cc2ccc(-c3ccc(C(=O)O)cc3)cc2)CC1 [Example 159, 4′-((4-methyl-1,4-diazepan-1-yl)methyl)-[1,1′-biphenyl]-4-carboxylic acid] |
|  |  | < 50000 | CN1CCCN(Cc2ccc(-c3ccc(CC(=O)O)cc3)cc2)CC1 [Example 160, 2-(4′-((4-methyl-1,4-diazepan-1-yl)methyl)-[1,1′-biphenyl]-4-yl)acetic acid] |
